Experimental findings from patent publication US8217069B2, “Nitrogenated fused ring derivative, pharmaceutical composition comprising the same, and use of the same for medical purposes” (Kissei Pharmaceutical Co., Ltd., priority 2007, dated 2012) are described below.

The target in this test is T1, human GnRH receptor1 (GnRHR1) (Homo sapiens, UniProt P30968).
T1 construct: expressed in transfected cells
T1 sequence (P30968 1-328): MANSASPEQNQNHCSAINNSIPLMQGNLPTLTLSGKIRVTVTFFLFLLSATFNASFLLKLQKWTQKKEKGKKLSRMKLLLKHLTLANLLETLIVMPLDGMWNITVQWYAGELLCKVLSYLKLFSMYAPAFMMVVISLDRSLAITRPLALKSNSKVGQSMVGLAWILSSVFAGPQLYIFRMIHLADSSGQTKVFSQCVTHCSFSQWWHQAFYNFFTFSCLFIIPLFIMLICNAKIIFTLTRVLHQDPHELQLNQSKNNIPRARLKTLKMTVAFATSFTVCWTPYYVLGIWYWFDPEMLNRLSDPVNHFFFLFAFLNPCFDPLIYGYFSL
Kind of test: Assay of inhibitory effect for the change of calcium levels in GnRH-stimulated cells (hGnRHR1#1 HEK293 cells, FLIPR Calcium Assay Kit). As to conditions: drug concentration at which 50% GnRH-stimulated intracellular calcium flux was inhibited, 10 nM GnRH. It is filed as cell-based. The text has this: 1) Cloning and Construction of the Vector Expressing Human GnRH Receptor1 (GnRHR1)
Using cDNA derived from human pituitary (BECTON DICKINSON) as a template, the DNA fragment coding 45 to 1115 bp of human GnRHR1 (Accession No. L03380), which was reported by Kakar et al., was amplified by PCR method and inserted into the multi-cloning site of pcDNA3.1(+) (Invitrogen). The DNA sequence inserted was perfectly matched to the previously reported sequence.
2) Establishment of Cell Line Stably Expressing Human GnRH Receptor1 HEK293 Cells
The expression vector of human GnRHR1 gene, was digested by XhoI into a linear DNA. The linear DNA was transfected into HEK293 cells by means of lipofection (Lipofectamine-2000: Invitrogen). Neomycin resistant cell lines were selected by culture in the medium containing G418 (Invitrogen) at 1 mg/mL, and then the change of calcium levels in GnRH-stimulated cells was measured by the method described below.
3) Assay of Inhibitory Effect for the Change of Calcium Levels in GnRH-Stimulated Cells
Antagonizing effect of compounds for human GnRHR1 was evaluated by depression of calcium levels in GnRH-stimulated cells. hGnRHR1#1 cells were seeded into a 96-well culture plate at a density of 1.5×10^5 cells/well and cultured for a day. After removing the culture medium, cells were washed with 200 μL per well of the washing buffer (Hanks' Balanced Salt Solutions, 20 mM N-2-hydroxyethylpiperazine-N′-2-ethanesulfonic acid, 1.3 mM calcium chloride, 0.5 mM magnesium chloride, 0.4 mM magnesium sulfate). One hundred μL of the Ca^2+ sensitive dye solution (FLIPR Calcium Assay Kit, Molecular Devices) was added to the well, and the cells were incubated for 1 hour at 37° C. in 5% CO2 incubator. Then, intracellular calcium levels were determined under the following condition by using FLEX STATION (Molecular Devices). In the equipment, which was warmed to 37° C., 50 μL of test compound diluted with the measurement buffer (the washing buffer with 0.1% Albumin bovine serum) was added to the well. After 1 minute, 50 μL of 10 nM GnRH was added to the well. The drug concentration, at which 50% GnRH-stimulated intracellular calcium flux was inhibited (IC50 value), was calculated using logit plot (Table 106).
On the technique in general: Calcium assays in cells follow changes in intracellular calcium, usually with a dye or a luminescent sensor.

For `CC(C)(c1ccccc1)S(=O)(=O)c1ccc(Cl)c(-n2c(=O)[nH]c3ccc(C(=O)O)nc32)c1` [Example 35], the IC50 (in general, the concentration that inhibits the measured activity by half) is 0.193 µM. Next, `COc1cc(Cl)c(-n2c(=O)[nH]c3c(OC)ncnc32)cc1OCc1c(OC)ccc(F)c1F` [Example 39]: 0.027 µM. As for `COc1ccc(F)c(F)c1CN(C(C)=O)c1ccc(Cl)c(-n2c(=O)[nH]c3c(C)cc(C(=O)O)nc32)c1` [Example 81], the figure is 0.032 µM; as for `Cc1cc(C(=O)O)nc2c1[nH]c(=O)n2-c1cc(S(=O)(=O)N2CCCCc3ccccc32)ccc1F` [Example 93], 0.02 µM; as for `COc1cc(F)c(-n2c(=O)[nH]c3c(C)cc(C(=O)O)nc32)cc1SC(C)(C)c1ccccc1Cl` [Example 109], 0.036 µM. Regarding `COc1cccc(F)c1C(C)(C)S(=O)(=O)c1ccc(Cl)c(-n2c(=O)[nH]c3c(C)cc(C(=O)O)nc32)c1` [Example 128], the IC50 worked out at 0.024 µM.

Turning to `Cc1cc(CO)nc2c1[nH]c(=O)n2-c1cc(S(=O)(=O)N2CCCCc3ccccc32)ccc1Cl` [Example 152, 3-[2-Chloro-5-(2,3,4,5-tetrahydro-1H-1-benzoazepin-1-ylsulfonyl)phenyl]-5-hydroxymethyl-7-methyl-1,3-dihydro-2H-imidazo[4,5-b]pyridin-2-one], the IC50 was found to be 0.032 µM. Next, `Cc1cc(/C(N)=N/O)nc2c1[nH]c(=O)n2-c1cc(S(=O)(=O)N2CCCCc3ccccc32)ccc1Cl` [Example 160, 3-[2-Chloro-5-(2,3,4,5-tetrahydro-1H-1-benzoazepin-1-ylsulfonyl)phenyl]-5-hydroxycarbamimidoyl-7-methyl-1,3-dihydro-2H-imidazo[4,5-b]pyridin-2-one]: 0.099 µM; `COc1ccccc1N(C)S(=O)(=O)c1ccc(Cl)c(-n2c(=O)[nH]c3c(OC)ncnc32)c1` [Example 199]: 0.046 µM; `COc1cccc(F)c1COc1cc(-n2c(=O)[nH]c3c(OC)nc(CF)nc32)c(Cl)cc1OCCO` [Example 251]: 0.054 µM. Turning to `COc1ncnc2c1[nH]c(=O)n2-c1cc(OCc2c(OCCNC(C)=O)ccc(F)c2F)ccc1Cl` [Example 262], the IC50 was found to be 0.062 µM.

As to `COc1cccc(F)c1COc1cc(-n2c(=O)[nH]c3c(OC)nc(CO)nc32)c(Cl)cc1OCC(=O)O` [Example 274], the IC50 came out at 0.015 µM.

As to `COc1cc(Cl)c(-n2c(=O)[nH]c3c(OC)nc(CCO)nc32)cc1OCc1c(F)cccc1OC` [Example 314, 9-[2-Chloro-5-(2-fluoro-6-methoxybenzyloxy)-4-methoxyphenyl]-2-(2-hydroxyethyl)-6-methoxy-7,9-dihydro-8H-purin-8-one], the IC50 was determined as 0.023 µM.

For `COc1ccc(F)c(F)c1COc1cc(-n2c(=O)[nH]c3c(OC)nc(CF)nc32)c(Cl)cc1OCC(=O)NCCO` [Example 341], the IC50 worked out at 0.032 µM.

With `COc1ccc(F)c(F)c1COc1cc(-n2c(=O)[nH]c3c(OC)nc(C(F)F)nc32)c(Cl)cc1OCC(=O)N(C)C` [Example 345], the half-inhibitory concentration (IC50) turned out to be 0.017 µM.

`CNC(=O)COc1cc(Cl)c(-n2c(=O)[nH]c3c(OC)nc(C(C)=O)nc32)cc1OCc1c(OC)ccc(F)c1F` [Example 346]: the IC50 worked out at 0.038 µM. As for `COc1cc(Cl)c(-n2c(=O)[nH]c3c(C)nc(N)nc32)cc1OCc1c(OC)ccc(F)c1F` [Example 381, 2-Amino-9-[2-chloro-5-(2,3-difluoro-6-methoxybenzyloxy)-4-methoxyphenyl]-6-methyl-7,9-dihydro-8H-purin-8-one], the figure is 0.036 µM; as for `CCNC(=O)COc1cc(Cl)c(-n2c(=O)[nH]c3c(C(C)=O)nc(C)nc32)cc1OCc1c(F)cccc1OC` [Example 452], 0.019 µM.
